# Test results from patent publication US10800816B2 (Baxalta GmbH, priority 2012, dated 2020).
# Entries after “also recorded” stand apart in the source; their conditions may differ. Where a SMILES comes first, the peptide text is derived from it. Bridges are numbered along the chain shown (N, C = ends). [ ]: non-standard residue; d: D form. Sar = CNCC(=O)O
# Columns and labels:
# TFPI [1] = assay: FXa Inhibition assay | EC50 (µM)
# TFPI [2] = assay: % Inhibition @ 2.5µM
# TFPI [3] = assay: % Inhibition @ 0.63µM
# TFPI [4] = assay: Extrinsic Tenase Inhibition assay | % Inhibition @ 2.5μM
# [5] = system: Tissue Factor Pathway Inhibitor (TFPI); assay: IC50 ELISA | Mean IC50 [nM]
# From the text: Table printed on a drawing sheet, FIGURE 78V
# Head of the field: IC50 ELISA | Mean IC50 [nM]
# [6] = system: Tissue Factor Pathway Inhibitor (TFPI); assay: IC50 ELISA | IC50 [nM]
# From the text: Table printed on a drawing sheet, FIGURE 78G
# Head of the field: IC50 ELISA | IC50 [nM]
# in vitro = settings: human, plasma
# [7] = mouse, 24 h
# [8] = system: FVIII-inhibited whole blood; assay: Rotation thromboelastography (ROTEM) in whole blood; design: species or system human; settings: Hem A / FVIII-inhibited human whole blood
# Experimental: Continuous visco-elastic assessment of human whole blood clot formation and firmness was performed by rotation thromboelastography with whole blood preparations in the presence or absence of peptides. […] Test samples were prepared by dissolving quantities of peptides in either DMSO or HEPES buffered saline (with or without 0.1% Tween 80).
# Recordings were made using a ROTEM thromboelastography coagulation analyzer (Pentapharm, Munich, Germany) at 37° C. Briefly, blood is added into a disposable cuvette in a heated cuvette holder. A disposable pin (sensor) is fixed on the tip of a rotating axis. The axis is guided by a high precision ball bearing system and rotates back and forth. The axis is connected with a spring for the measurement of elasticity. The exact position of the axis is detected by the reflection of light on a small mirror on the axis. The loss of elasticity when the sample clots leads to a change in the rotation of the axis. The data obtained are computer analyzed and visualized in a thromboelastogram. […] An elasticity of approximately zero is observed before clot formation begins. Mirror image traces above and below the zero line indicate the effect of clot formation on the rotation of the axis.
# The analytical set-up was as follows: to 20 μL of test sample or control, 300 μL of pre-warmed (37° C.) CTI treated citrated whole blood was added, followed by 20 μL of a 1:15 dilution of TF PRP reagent containing recombinant human tissue factor (rTF, 3 pM) (TS40, Thrombinoscope BV, Maastricht, The Netherlands). Coagulation was initiated by the addition of 20 μ200 mM CaCl2 (star-TEM®, Pentapharm, Munich, Germany) and recordings were allowed to proceed for at least 120 min. The final concentration of rTF in the assay was 11 or 44 fM.
# The thromboelastographic parameters of clotting time (CT), clot formation time (CFT) and maximum clot firmness (MCF) were recorded in accordance with the manufacturer's instructions. CT is defined as the time from the start of measurement to the start of clot formation. CFT is defined as the time from the start of clot formation until an amplitude of 20 mm is reached. MCF is the maximum difference in amplitude between the two traces during the assay. The first derivative of the data of the thromboelastogram are plotted to obtain a graph of velocity (mm/s) against time (s). From this graph, the maximum velocity (maxV) is determined. The time at which the maximum velocity is obtained (maxV-t) is also determined.
# This example describes a method for assessing clot formation in whole blood using rotation thromboelastography (ROTEM). The assay was performed as described in Example 8. The analytical set-up was as follows: 300 μL of pre-warmed (37° C.) CTI treated citrated whole blood was added to a peptide sample (10, 100, 1000 nM final assay concentration) or a control, followed by addition of a 1:15 dilution of TF PRP reagent containing recombinant human tissue factor (rTF, 3 pM) (TS40, Thrombinoscope BV, Maastricht, The Netherlands). In certain experiments, exogenous full length TFPI (flTFPI) at final concentrations of 2 or 10 nM was added to simulate flTFPI plasma levels of up to 50-fold over normal. Coagulation was initiated by the addition of 20 μL 200 mM CaCl2 (star-TEM®, Pentapharm, Munich, Germany) and recordings were allowed to proceed for at least 120 min. The final concentration of rTF in the assay was 44 fM. The thromboelastographic parameters of clotting time (CT), clot formation time (CFT) and maximum clot firmness (MCF) were recorded in accordance with the manufacturer's instructions. CT is defined as the time from the start of measurement to the start of clot formation. CFT is defined as the time from the start of clot formation until an amplitude of 20 mm is reached. MCF is the maximum difference in amplitude between the two traces during the assay.
compound,measurement,setting,value
Ac-FQSKKAVFVFGYFERLRAKL-NH2 (SEQ ID NO: 288) [JBT0696],EC50,TFPI [1],710 nM
same,% Inhibition @ […],TFPI [2],48%
same,% Inhibition @ […],TFPI [3],26%
CC(=O)N[C@@H](Cc1ccccc1)C(=O)N[C@@H](CCC(N)=O)C(=O)N[C@@H](CO)C(=O)N[C@@H](CCCCN)C(=O)N(C)CC(=O)N[C@@H](CC(N)=O)C(=O)N[C@H](C(=O)N[C@@H](Cc1ccccc1)C(=O)N[C@H](C(=O)N[C@@H](CC(=O)O)C(=O)NCC(=O)N[C@@H](Cc1ccc(O)cc1)C(=O)N[C@@H](Cc1ccccc1)C(=O)N[C@@H](CCC(=O)O)C(=O)N[C@@H](CCCNC(=N)N)C(=O)N[C@@H](CC(C)C)C(=O)N[C@@H](CCCNC(=N)N)C(=O)N[C@@H](C)C(=O)N[C@@H](CCCCN)C(=O)N[C@@H](CC(C)C)C(N)=O)C(C)C)C(C)C [JBT0717] (Ac-FQSK[Sar]NVFVDGYFERLRAKL-NH2),Plasma Stability (half life in minutes) human,,>2 h
Ac-SRYKWF[CGMADMKGTMSC]VWVKF-NH2 (SEQ ID NO: 1079) (Ac-SRYKWFCGMADMKGTMSCVWVKF-NH2; disulfide 7-18; SMILES CSCC[C@@H]1NC(=O)CNC(=O)[C@@H](NC(=O)[C@H](Cc2ccccc2)NC(=O)[C@H](Cc2c[nH]c3ccccc23)NC(=O)[C@H](CCCCN)NC(=O)[C@H](Cc2ccc(O)cc2)NC(=O)[C@H](CCCNC(=N)N)NC(=O)[C@H](CO)NC(C)=O)CSSC[C@@H](C(=O)N[C@H](C(=O)N[C@@H](Cc2c[nH]c3ccccc23)C(=O)N[C@H](C(=O)N[C@@H](CCCCN)C(=O)N[C@@H](Cc2ccccc2)C(N)=O)C(C)C)C(C)C)NC(=O)[C@H](CO)NC(=O)[C@H](CCSC)NC(=O)[C@H]([C@@H](C)O)NC(=O)CNC(=O)[C@H](CCCCN)NC(=O)[C@H](CCSC)NC(=O)[C@H](CC(=O)O)NC(=O)[C@H](C)NC1=O) [JBT0446],Extrinsic Tenase Inhibition assay | % Inhibition @ […],TFPI [4],46%
Ac-FQSKpNVH-Tle-D-hcy-YFCRL-Aib-AKL-NH2 [JBT00002498],IC50,[5],7.59 nM
CC(=O)N[C@@H](Cc1ccccc1)C(=O)N[C@@H](CCC(N)=O)C(=O)N[C@@H](CO)C(=O)N[C@@H](CCCCN)C(=O)N(C)CC(=O)N[C@@H](CC(N)=O)C(=O)N[C@H](C(=O)N[C@@H](Cc1ccccc1)C(=O)N[C@H](C(=O)N[C@@H](CC(=O)O)C(=O)NCC(=O)N[C@@H](Cc1ccc(O)cc1)C(=O)N[C@@H](Cc1ccccc1)C(=O)N[C@@H](CCC(=O)O)C(=O)N[C@@H](CCCNC(=N)N)C(=O)N[C@@H](CC(C)C)C(=O)NC(C)(C)C(=O)N[C@@H](C)C(=O)N[C@@H](CCCCN)C(=O)N[C@@H](CC(C)C)C(N)=O)C(C)C)C(C)C [JBT1584],Plasma Stability (half life in minutes) human,,>2 h
Ac-FQSKaNVFVTGYFARLRAKL-NH2 (SEQ ID NO: 54) (Ac-FQSK[dA]NVFVTGYFARLRAKL-NH2; SMILES CC(=O)N[C@@H](Cc1ccccc1)C(=O)N[C@@H](CCC(N)=O)C(=O)N[C@@H](CO)C(=O)N[C@@H](CCCCN)C(=O)N[C@H](C)C(=O)N[C@@H](CC(N)=O)C(=O)N[C@H](C(=O)N[C@@H](Cc1ccccc1)C(=O)N[C@H](C(=O)N[C@H](C(=O)NCC(=O)N[C@@H](Cc1ccc(O)cc1)C(=O)N[C@@H](Cc1ccccc1)C(=O)N[C@@H](C)C(=O)N[C@@H](CCCNC(=N)N)C(=O)N[C@@H](CC(C)C)C(=O)N[C@@H](CCCNC(=N)N)C(=O)N[C@@H](C)C(=O)N[C@@H](CCCCN)C(=O)N[C@@H](CC(C)C)C(N)=O)[C@@H](C)O)C(C)C)C(C)C) [JBT0668],EC50,TFPI [1],520 nM
same,% Inhibition @ […],TFPI [2],70%
same,% Inhibition @ […],TFPI [3],43%
Ac-FQSKaNVFVFGYFERLRAKL-NH2 (SEQ ID NO: 53) (Ac-FQSK[dA]NVFVFGYFERLRAKL-NH2; SMILES CC(=O)N[C@@H](Cc1ccccc1)C(=O)N[C@@H](CCC(N)=O)C(=O)N[C@@H](CO)C(=O)N[C@@H](CCCCN)C(=O)N[C@H](C)C(=O)N[C@@H](CC(N)=O)C(=O)N[C@H](C(=O)N[C@@H](Cc1ccccc1)C(=O)N[C@H](C(=O)N[C@@H](Cc1ccccc1)C(=O)NCC(=O)N[C@@H](Cc1ccc(O)cc1)C(=O)N[C@@H](Cc1ccccc1)C(=O)N[C@@H](CCC(=O)O)C(=O)N[C@@H](CCCNC(=N)N)C(=O)N[C@@H](CC(C)C)C(=O)N[C@@H](CCCNC(=N)N)C(=O)N[C@@H](C)C(=O)N[C@@H](CCCCN)C(=O)N[C@@H](CC(C)C)C(N)=O)C(C)C)C(C)C) [JBT0663],EC50,TFPI [1],290 nM
same,% Inhibition @ […],TFPI [2],81%
same,% Inhibition @ […],TFPI [3],60%
Ac-FQSKpN-Phg-H-Phg-DGYFERL-Aib-AKL-NH2 [JBT00002298],IC50,[6],> 5000 nM
Ac-FQSKpN-Chg-H-Chg-DGYFERL-Aib-AKL-NH2 [JBT00002295],IC50,[6],> 5000 nM
Ac-FQSKp-Nmn-VHVDGYFERL-Aib-AKL-NH2 [JBT00002287],IC50,[6],> 500 nM
Ac-SRYKWFGM[CRDMKGTMSC]VWVKF-NH2 (SEQ ID NO: 1233) (Ac-SRYKWFGMCRDMKGTMSCVWVKF-NH2; disulfide 9-18; SMILES CSCC[C@H](NC(=O)CNC(=O)[C@H](Cc1ccccc1)NC(=O)[C@H](Cc1c[nH]c2ccccc12)NC(=O)[C@H](CCCCN)NC(=O)[C@H](Cc1ccc(O)cc1)NC(=O)[C@H](CCCNC(=N)N)NC(=O)[C@H](CO)NC(C)=O)C(=O)N[C@H]1CSSC[C@@H](C(=O)N[C@H](C(=O)N[C@@H](Cc2c[nH]c3ccccc23)C(=O)N[C@H](C(=O)N[C@@H](CCCCN)C(=O)N[C@@H](Cc2ccccc2)C(N)=O)C(C)C)C(C)C)NC(=O)[C@H](CO)NC(=O)[C@H](CCSC)NC(=O)[C@H]([C@@H](C)O)NC(=O)CNC(=O)[C@H](CCCCN)NC(=O)[C@H](CCSC)NC(=O)[C@H](CC(=O)O)NC(=O)[C@H](CCCNC(=N)N)NC1=O) [JBT0462],Extrinsic Tenase Inhibition assay | % Inhibition @ […],TFPI [4],0%
Ac-SRYKWFCGMRDMKGTMSAVWVKF-NH2 (SEQ ID NO: 1160) [JBT0454],Extrinsic Tenase Inhibition assay | % Inhibition @ […],TFPI [4],0%
CC(=O)N[C@@H](Cc1ccccc1)C(=O)N[C@@H](CCC(N)=O)C(=O)N[C@@H](CO)C(=O)N[C@@H](CCCCN)C(=O)N1CCC[C@@H]1C(=O)N[C@@H](CC(N)=O)C(=O)N[C@H](C(=O)N[C@@H](Cc1cnc[nH]1)C(=O)N[C@H](C(=O)N[C@@H](CC(=O)O)C(=O)NCC(=O)N[C@@H](Cc1ccc(O)cc1)C(=O)N[C@@H](Cc1ccccc1)C(=O)N[C@@H](CCC(=O)O)C(=O)N[C@@H](CCCNC(=N)N)C(=O)N[C@@H](CC(C)C)C(=O)NC(C)(C)C(=O)N[C@@H](C)C(=O)N[C@@H](CCCCN)C(=O)N[C@@H](CC(C)C)C(N)=O)C(C)C)C(C)C [JBT1857],remaining at 24 h,in vitro,27%
same,percentage of original amount of peptide remaining,"human, plasma, 24 h",27%
same,percentage of initial amount of peptide remaining in plasma,[7],< 10%
same,percentage of initial amount of peptide remaining,[7]; plasma,Less than 5%
same,coagulation parameters,[8],"restored coagulation parameters in Hem A blood; also recorded: positively impacted blood coagulation parameters, but performed less efficiently than JBT1837"
